Measurements taken from US6455250B1, “Endonuclease compositions and methods of use” (The Regents of the University of California, priority 1997, dated 2002).
“Also recorded” adds a separate entry of the source.

What was measured:
Endo-SR = biological target: T1, Endo-SR (Mus musculus, UniProt P56542); assay: Effect of M^2+ species and EDTA on murine Endo-SR activity (Example 1, FIG. 3B); assay type: biochemical
T1 construct: All nuclease assays were performed with Fraction IV enzyme (see below) as the source for Endo-SR activity, unless otherwise specified; endogenous in cells; host or cells: murine 38B9 pre-B cell line, nuclear extract, chromatographic Fraction IV (BioRex 70, 300 mM NaCl step)
T1 sequence (P56542 20-353): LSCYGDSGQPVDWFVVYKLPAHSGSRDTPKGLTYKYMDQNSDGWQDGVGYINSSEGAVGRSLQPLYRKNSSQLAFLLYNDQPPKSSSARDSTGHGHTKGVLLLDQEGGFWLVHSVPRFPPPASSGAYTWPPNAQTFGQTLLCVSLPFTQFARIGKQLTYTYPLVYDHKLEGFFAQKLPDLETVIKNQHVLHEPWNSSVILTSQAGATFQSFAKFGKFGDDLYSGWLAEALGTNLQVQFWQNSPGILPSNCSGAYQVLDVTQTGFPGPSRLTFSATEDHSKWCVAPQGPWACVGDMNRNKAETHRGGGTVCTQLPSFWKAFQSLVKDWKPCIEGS
Experimental: FIG. 3B. Effect of M^2+ species on Endo-SR activity. Nuclease assays were performed as previously described but with varied concentrations of different M^2+ species (or EDTA) replacing the standard (5 mM Mg^2+) assay condition. Activity values shown are expressed as percentages of an activity detected in a control assay (0 μM) containing no added M^2+ species.
Endonuclease assays were conducted in 10 μl reaction volumes containing 10 mM bis-Tris (pH6.5), 5 mM MgCl2, ˜250 pmoles of an end-labeled (^32P) DNA substrate, 1 μg of calf-thymus DNA, and 1 μl of an active Endo-SR fraction. […] All nuclease assays were performed with Fraction IV enzyme (see below) as the source for Endo-SR activity, unless otherwise specified. Nuclease assays performed for biochemical analysis of Endo-SR activity were conducted as described except for the addition or substitution of the test material. Reactions were incubated at 37° C. for 30 min, then mixed with an equal volume of formamide dye (Ausubel et al., 1987) and heated to 95° C. for 5 min prior to electrophoresis on an appropriate percentage (8-15%) sequencing gel. After electrophoresis, these gels were transferred to Whatman paper, dried, and exposed to film for 12-48 h. All detected cleavage products were compared to adjacent Maxam-Gilbert sequencing reactions, and adjusted one nucleotide 3′ to compensate for the removed base (Ausubel et al., 1987). After autoradiographic analysis, endonuclease activity was assayed by scintillation counting of intact substrate and specific cleavage products excised from the dried gel. End-labeled DNA substrates were prepared according to previously described methods (Hope et al., 1986).

bovine Endo-SR = biological target: T2, bovine Endo-SR (Bos taurus, UniProt P56541); assay: Effect of M^2+ cofactors and EDTA on bovine Endo-SR activity (FIG. 2B); assay type: biochemical; settings: ≦50 μM
T2 construct: Nuclear extracts for enzyme purification were generated from bovine spleen; from tissue; host or cells: bovine spleen nuclear extract, Fraction V (Superose-12)
T2 sequence (P56541 20-365): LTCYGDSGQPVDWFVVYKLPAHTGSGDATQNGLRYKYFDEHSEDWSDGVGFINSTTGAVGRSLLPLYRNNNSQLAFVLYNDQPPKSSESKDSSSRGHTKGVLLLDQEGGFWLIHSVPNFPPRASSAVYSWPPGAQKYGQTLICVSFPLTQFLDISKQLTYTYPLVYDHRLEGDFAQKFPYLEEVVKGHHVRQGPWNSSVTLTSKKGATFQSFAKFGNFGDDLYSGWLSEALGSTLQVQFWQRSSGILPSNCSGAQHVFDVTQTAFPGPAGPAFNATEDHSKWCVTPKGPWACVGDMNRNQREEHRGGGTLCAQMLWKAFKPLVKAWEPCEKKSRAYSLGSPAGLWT
Experimental: (§1) FIG. 2B. Effect of various common divalent metal cation (M^2+) species on Endo-SR activity. Nuclease reaction buffer used in these assays contained no Mg^2+, and nuclease reactions were adjusted to various M or EDTA concentrations. Nuclease assays performed with supplemental M^2+ or EDTA were pre-incubated for 30 min on ice prior to addition of the DNA substrate. Specific endonuclease activity values detected in these assays were normalized against nuclease reactions, which contained no supplemental M^2+ or EDTA, and expressed as percentages of this reaction activity. Bovine and murine enzyme activities are represented by open and closed symbols, respectively.
(§2) Endo-SR activity was assayed in 10 μl reactions containing 50 mM sodium acetate (pH 5.5), ˜150 mM NaCl, 0.5 mM MgCl2, ˜250 fmoles of end-labeled DNA substrate (see below), 1 μg sheared salmon sperm DNA, and 1 μl of a diluted Endo-SR fraction. All reactions performed with bovine Endo-SR used Fraction V material (Table 2). Murine Endo-SR used in these assays was purified essentially as previously described (Lyon et al., 1996). All nuclease assays were incubated at 37° C. for 30 min, then mixed with 10 μl of formamide dye and denatured at 95° C. for 5 min prior to size-fractionation on standard sequencing gels. Endo-SR activity values (fmol/min) were determined by quantitation of the radioactivity present in specific nuclease cleavage products and intact substrate (negative control) excised from the dried gel (Lyon et al., 1996). Nuclease assays used to characterize the activity parameters of murine and bovine Endo-SR were performed essentially as previously described (Lyon et al., 1996).

murine Endo-SR = biological target: T3, murine Endo-SR (Mus musculus, UniProt P56542); assay: Effect of M^2+ cofactors and EDTA on murine Endo-SR activity (Example 2, FIG. 2B); assay type: biochemical; settings: ≦50 μM
T3 construct: Nuclease assays were performed with purified bovine nuclease (Fraction V) and partially purified murine Endo-SR (Lyon et al., 1996); endogenous in cells
T3 sequence (P56542 20-353): T1 sequence (P56542 20-353)
Experimental: as §1, §2

switch recombination = settings: without demonstrably affecting cell proliferation or CH gene transcription; Loh et al., 1994a, 1995; cited from earlier work
[1] = biological target: the molecule itself; assay: native size exclusion chromatography (~35 000) compared with SDS-PAGE (Mr ~32 000)

[Ca+2] [Ca^2+]
effect on Endo-SR activity (Endo-SR; 500 μM): significantly enhanced

O=C(O)CN(CCN(CC(=O)O)CC(=O)O)CC(=O)O [EDTA]
inhibition of Endo-SR activity (Endo-SR; 5 mM): ~40%
effect on Endo-SR activity (Endo-SR; 50 mM): completely inhibited; also recorded: complete inhibition
effect on nuclease activity at low concentrations (bovine Endo-SR): relatively resistant
effect on nuclease activity at low concentrations (murine Endo-SR): relatively resistant

[Mg+2] [Mg^2+]
effect on Endo-SR activity (Endo-SR; 500 μM): significantly enhanced; also recorded: maximal activity
effect on nuclease activity at low concentrations (bovine Endo-SR): significant degree of enzyme inhibition
effect on nuclease activity at low concentrations (murine Endo-SR): significant degree of enzyme inhibition

[Zn+2] [Zn^2+]
inhibition of Endo-SR activity (Endo-SR; 50 μM): ~50%
inhibition of Endo-SR activity (Endo-SR; 500 μM): ~95%
effect on nuclease activity at low concentrations (bovine Endo-SR): significant degree of enzyme inhibition
effect on nuclease activity at low concentrations (murine Endo-SR): significant degree of enzyme inhibition

O=C([O-])c1cc(=O)c2c(OCC(O)COc3cccc4oc(C(=O)[O-])cc(=O)c34)cccc2o1.[Na+].[Na+] [disodium cromoglycolate]
effect on switch rearrangement (switch recombination): dramatically repress switch rearrangement

CCCc1c2oc(C(=O)O)cc(=O)c2cc2c(=O)cc(C(=O)O)n(CC)c12 [nedocromil sodium]
effect on switch rearrangement (switch recombination): dramatically repress switch rearrangement

B1: purified bovine Endo-SR (Fraction V, from bovine spleen nuclear extract) (enzyme, UniProt P56541 20-365, looked up)
chain: T2 sequence (P56541 20-365)
notes: Native enzyme purified to homogeneity; also called bovine Endo-SR nuclease; Mr ~32 000 protein species
binding result [1]: no binding
